Broadly, the inhibition is the drop in the measured response relative to a control, in per cent.

The target in experiment [1] is Uracil-DNA glycosylase (Homo sapiens) (UniProt P13051). Conditions: Compound Concentration 10.0 uM, Hit No.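 Further: UNG excision on a quenched double-stranded DNA oligo probe, with APE1 added for strand incision and turnover, read as fluorescence at 594 nm as strands separate.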
Description: Inhibition of UNG by quantifying inhibition of UNG-mediated cleavage and dissociation of quenched duplex DNA oligonucleotides, measured as fluorescence at 594 nm. To generate a functional strand incision and increase turn-over this assay is coupled to APE1.
Experiment [2] deals with T1, Single-strand selective monofunctional uracil DNA glycosylase (Homo sapiens) (UniProt Q53HV7).
T1 sequence (whole entry): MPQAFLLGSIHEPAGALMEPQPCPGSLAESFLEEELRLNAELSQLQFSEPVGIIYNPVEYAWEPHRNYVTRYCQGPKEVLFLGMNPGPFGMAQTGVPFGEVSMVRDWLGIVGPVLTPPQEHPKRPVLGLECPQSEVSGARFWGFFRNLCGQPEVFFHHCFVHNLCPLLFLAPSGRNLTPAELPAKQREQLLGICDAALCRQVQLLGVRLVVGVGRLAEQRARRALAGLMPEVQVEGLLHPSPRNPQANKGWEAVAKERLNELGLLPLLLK
Conditions: Compound Concentration 10.0 uM, Hit No.
Description: Inhibition of SMUG1 by quantifying inhibition of SMUG1-mediated cleavage and dissociation of quenched duplex DNA oligonucleotides, measured as fluorescence at 594 nm. To generate a functional strand incision and increase turn-over this assay is coupled to APE1.

The target in experiment [3] is T2, Adenine DNA glycosylase (Homo sapiens) (UniProt Q9UIF7).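 Further: human MUTYH activity read as 594 nm fluorescence from cleavage and release of a quenched DNA duplex, coupled with APE1 for strand incision, lower signal meaning inhibition.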
T2 sequence (whole entry): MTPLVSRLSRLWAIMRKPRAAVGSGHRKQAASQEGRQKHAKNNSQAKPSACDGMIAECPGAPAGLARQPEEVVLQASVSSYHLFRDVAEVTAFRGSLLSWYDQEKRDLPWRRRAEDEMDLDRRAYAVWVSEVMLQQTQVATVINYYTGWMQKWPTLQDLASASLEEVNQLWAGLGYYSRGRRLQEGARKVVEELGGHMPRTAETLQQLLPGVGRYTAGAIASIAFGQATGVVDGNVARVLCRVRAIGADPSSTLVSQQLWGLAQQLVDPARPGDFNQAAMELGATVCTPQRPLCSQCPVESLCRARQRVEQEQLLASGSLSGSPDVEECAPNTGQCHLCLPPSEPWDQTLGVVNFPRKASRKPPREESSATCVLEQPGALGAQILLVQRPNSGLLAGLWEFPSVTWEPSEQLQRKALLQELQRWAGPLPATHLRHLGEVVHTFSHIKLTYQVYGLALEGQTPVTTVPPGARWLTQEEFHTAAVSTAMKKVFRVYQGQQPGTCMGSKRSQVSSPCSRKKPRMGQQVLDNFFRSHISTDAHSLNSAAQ
Conditions: Compound Concentration 10.0 uM, Hit No.
Description: Inhibition of MUTYH by quantifying inhibition of MUTYH-mediated cleavage and dissociation of quenched duplex DNA oligonucleotides, measured as fluorescence at 594 nm. To generate a functional strand incision and increase turn-over this assay is coupled to APE1.

The target of experiment [4] is T3, Endonuclease III-like protein 1 (Homo sapiens) (UniProt P78549).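 Further: enzyme assay tracking NTHL1 cutting and release of a quenched double-stranded DNA oligo substrate, read as fluorescence at 594 nm.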
T3 sequence (whole entry): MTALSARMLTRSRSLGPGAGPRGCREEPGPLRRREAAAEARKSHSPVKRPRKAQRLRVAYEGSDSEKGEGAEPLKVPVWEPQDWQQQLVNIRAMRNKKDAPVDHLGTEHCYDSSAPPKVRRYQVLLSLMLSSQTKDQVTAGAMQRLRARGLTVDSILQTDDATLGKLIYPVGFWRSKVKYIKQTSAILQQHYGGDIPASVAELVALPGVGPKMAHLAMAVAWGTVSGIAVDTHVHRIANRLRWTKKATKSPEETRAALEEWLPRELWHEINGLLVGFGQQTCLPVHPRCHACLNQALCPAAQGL
Conditions: Compound Concentration 10.0 uM, Hit No.
Description: Inhibition of NTHL1 by quantifying inhibition of NTHL1-mediated cleavage and dissociation of quenched duplex DNA oligonucleotides, measured as fluorescence at 594 nm.

Experiment [5] addresses G/T mismatch-specific thymine DNA glycosylase (Homo sapiens) (UniProt Q13569). Conditions: Compound Concentration 10.0 uM, Hit No.
Description: Inhibition of TDG by quantifying inhibition of TDG-mediated cleavage and dissociation of quenched duplex DNA oligonucleotides, measured as fluorescence at 594 nm. To generate a functional strand incision and increase turn-over this assay is coupled to APE1.
In experiment [6] the target is Methyl-CpG-binding domain protein 4 (Homo sapiens) (UniProt O95243). Conditions: Compound Concentration 10.0 uM, Hit No.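 Further: MBD4 activity read as fluorescence at 594 nm from cleavage and release of a quenched duplex DNA oligonucleotide, with APE1 coupled to incise the strand and raise turnover.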
Chain of Methyl-CpG-binding domain protein 4 (Homo sapiens) (O95243 whole entry, the tested form may be a part): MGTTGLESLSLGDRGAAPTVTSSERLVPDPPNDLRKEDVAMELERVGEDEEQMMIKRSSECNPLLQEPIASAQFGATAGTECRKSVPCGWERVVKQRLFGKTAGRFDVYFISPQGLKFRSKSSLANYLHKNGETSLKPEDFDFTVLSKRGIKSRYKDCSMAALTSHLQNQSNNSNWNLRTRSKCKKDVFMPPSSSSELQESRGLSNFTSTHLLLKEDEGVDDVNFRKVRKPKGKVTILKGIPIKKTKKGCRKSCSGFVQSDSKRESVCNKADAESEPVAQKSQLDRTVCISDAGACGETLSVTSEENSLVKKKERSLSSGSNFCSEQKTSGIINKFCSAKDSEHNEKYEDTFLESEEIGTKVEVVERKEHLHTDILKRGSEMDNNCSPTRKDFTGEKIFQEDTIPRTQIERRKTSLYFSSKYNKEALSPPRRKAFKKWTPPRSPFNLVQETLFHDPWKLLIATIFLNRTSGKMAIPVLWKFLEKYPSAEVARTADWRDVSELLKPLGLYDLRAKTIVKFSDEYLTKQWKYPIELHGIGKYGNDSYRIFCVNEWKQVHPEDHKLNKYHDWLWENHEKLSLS
Description: Inhibition of MBD4 by quantifying inhibition of MBD4-mediated cleavage and dissociation of quenched duplex DNA oligonucleotides, measured as fluorescence at 594 nm. To generate a functional strand incision and increase turn-over this assay is coupled to APE1.
The target in experiment [7] is N-glycosylase/DNA lyase (Homo sapiens) (UniProt O15527). Conditions: Compound Concentration 10.0 uM.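 Further: OGG1 cleavage of a quenched duplex DNA oligonucleotide, coupled to APE1 for strand incision, read as fluorescence at 594 nm.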
Chain of N-glycosylase/DNA lyase (Homo sapiens) (O15527 whole entry): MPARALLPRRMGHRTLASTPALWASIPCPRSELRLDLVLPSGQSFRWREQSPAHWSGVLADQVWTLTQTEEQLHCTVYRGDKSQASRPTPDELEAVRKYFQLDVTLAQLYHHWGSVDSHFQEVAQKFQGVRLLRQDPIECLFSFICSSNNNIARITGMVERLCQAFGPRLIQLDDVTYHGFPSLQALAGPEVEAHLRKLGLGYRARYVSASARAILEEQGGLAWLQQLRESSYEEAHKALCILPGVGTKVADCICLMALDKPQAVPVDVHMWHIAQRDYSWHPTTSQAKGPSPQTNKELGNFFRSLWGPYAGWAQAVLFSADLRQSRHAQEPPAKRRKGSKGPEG
Description: Inhibition of OGG1 by quantifying inhibition of OGG1-mediated cleavage and dissociation of quenched duplex DNA oligonucleotides, measured as fluorescence at 594 nm. To generate a functional strand incision and increase turn-over this assay is coupled to APE1.
Experiment [8] concerns the target Endonuclease 8-like 1 (Homo sapiens) (UniProt Q96FI4). Conditions: Compound Concentration 10.0 uM, Hit No.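 Further: fluorescence at 594 nm from quenched duplex DNA oligonucleotides released by NEIL1 cleavage and strand separation, reported as reduction of this enzyme activity.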
Description: Inhibition of NEIL1 by quantifying inhibition of NEIL1-mediated cleavage and dissociation of quenched duplex DNA oligonucleotides, measured as fluorescence at 594 nm.
In experiment [9] the target is T4, Endonuclease 8-like 2 (Homo sapiens) (UniProt Q969S2).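 Further: fluorescence at 594 nm reports NEIL2 cutting and release of a quenched double-stranded DNA oligo substrate, reduced signal read as inhibition.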
T4 sequence (whole entry): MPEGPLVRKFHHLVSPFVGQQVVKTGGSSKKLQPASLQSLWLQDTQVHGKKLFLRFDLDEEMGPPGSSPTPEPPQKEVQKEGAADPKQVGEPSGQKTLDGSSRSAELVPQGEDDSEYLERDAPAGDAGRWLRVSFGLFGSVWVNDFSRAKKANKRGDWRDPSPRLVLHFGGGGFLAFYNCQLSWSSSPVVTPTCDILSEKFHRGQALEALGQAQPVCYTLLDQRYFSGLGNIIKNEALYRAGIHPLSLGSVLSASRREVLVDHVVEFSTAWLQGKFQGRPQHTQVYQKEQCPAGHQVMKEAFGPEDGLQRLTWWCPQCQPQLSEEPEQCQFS
Conditions: Compound Concentration 10.0 uM, Hit No.
Description: Inhibition of NEIL2 by quantifying inhibition of NEIL2-mediated cleavage and dissociation of quenched duplex DNA oligonucleotides, measured as fluorescence at 594 nm.

Chain of Uracil-DNA glycosylase (Homo sapiens) (P13051 whole entry): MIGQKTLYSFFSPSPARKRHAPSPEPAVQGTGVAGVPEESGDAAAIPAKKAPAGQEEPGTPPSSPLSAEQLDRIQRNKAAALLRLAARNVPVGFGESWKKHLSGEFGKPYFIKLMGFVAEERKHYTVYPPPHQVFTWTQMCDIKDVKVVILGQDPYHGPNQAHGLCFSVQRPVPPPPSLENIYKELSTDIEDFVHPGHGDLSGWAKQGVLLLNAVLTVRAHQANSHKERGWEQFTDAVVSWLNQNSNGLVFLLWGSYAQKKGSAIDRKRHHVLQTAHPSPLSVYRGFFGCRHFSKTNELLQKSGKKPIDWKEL
Chain of Endonuclease 8-like 1 (Homo sapiens) (Q96FI4 whole entry): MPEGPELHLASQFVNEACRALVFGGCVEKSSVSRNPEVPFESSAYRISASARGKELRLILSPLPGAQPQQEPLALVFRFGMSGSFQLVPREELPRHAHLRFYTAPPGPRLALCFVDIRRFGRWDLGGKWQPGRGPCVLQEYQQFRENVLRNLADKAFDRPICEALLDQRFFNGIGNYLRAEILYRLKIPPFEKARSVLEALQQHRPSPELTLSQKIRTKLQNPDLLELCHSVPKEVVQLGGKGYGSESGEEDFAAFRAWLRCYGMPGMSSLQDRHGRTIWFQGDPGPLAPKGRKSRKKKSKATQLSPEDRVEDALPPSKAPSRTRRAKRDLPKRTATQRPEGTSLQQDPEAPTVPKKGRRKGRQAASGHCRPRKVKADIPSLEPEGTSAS
Chain of G/T mismatch-specific thymine DNA glycosylase (Homo sapiens) (Q13569 whole entry, the tested form may be a part): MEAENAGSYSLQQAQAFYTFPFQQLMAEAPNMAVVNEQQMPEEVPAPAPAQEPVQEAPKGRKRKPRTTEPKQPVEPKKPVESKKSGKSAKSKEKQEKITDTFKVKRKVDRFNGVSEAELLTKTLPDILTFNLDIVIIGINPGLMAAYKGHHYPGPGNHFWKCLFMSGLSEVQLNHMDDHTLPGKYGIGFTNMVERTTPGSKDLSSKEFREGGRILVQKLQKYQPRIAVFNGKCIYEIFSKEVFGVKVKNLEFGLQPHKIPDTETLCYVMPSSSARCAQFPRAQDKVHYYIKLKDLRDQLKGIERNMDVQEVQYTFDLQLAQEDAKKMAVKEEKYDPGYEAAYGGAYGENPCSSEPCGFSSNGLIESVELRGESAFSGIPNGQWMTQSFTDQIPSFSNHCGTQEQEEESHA

For the compound `COc1ccccc1-c1cc(Nc2cccc(CS(N)(=O)=O)c2)ncn1`, the inhibition in experiment [1] is 3.59%; in experiment [2] it was 19.3%; in [3], 4.56%; in [4], 7.06%; in [5] it was 35.8%; in experiment [6], -4.72%. Further, the results for the inhibition in experiment [7] (Hit No), in experiment [8] and in [9] were 3.23%, -4.75% and 4%, respectively.

In the case of `CCOC(=O)C1Cc2ccccc2CN1C(=O)c1ccc(SC)s1` (configuration not stated), the inhibition in experiment [1] is 0.734%; in [2] it was 19.5%; in experiment [3], -2.13%; in experiment [4], 1.34%; in experiment [5] it was 98.9%; in [6] it was 59.4%. Moreover, the inhibition in experiment [7] (Hit No) was 13.5%; in [8], -1.35%; in experiment [9], 4.36%.

On to `CC(=O)Nc1nc(CN2CCC[C@H](Cc3cc(C)nc(C)c3)C2)cs1`, for which the inhibition in experiment [1] came to 7.98%; in experiment [2], 19%; in experiment [3] it was 17.8%; in experiment [4], 9.23%; in experiment [5] it was 45.8%; in [6] it was 81.4%. The inhibition in [7] (Hit No) turned out to be 13.6%; in experiment [8], 1.68%; in [9], 3.85%.

On to `CCCCCNC(=O)N1CCC(CN(Cc2ccc(Cl)cc2)Cc2ccc([N+](=O)[O-])s2)C1` (configuration not stated), for which the inhibition in experiment [1] was 9.26%; in experiment [2], 13.7%; in experiment [3], -5.57%; in experiment [4], 1.34%; in experiment [5], 98.5%; in [6], 57.7%. Besides, the results for the inhibition in experiment [7] (Hit No), in [8] and in [9] were 13.5%, -3.17% and -1.51%, respectively.

For `C[C@@H]1C[C@H](C)CN(c2ncc(Cl)c(Nc3ccc4c(c3)cc(OC(C)(C)C(=O)O)c(=O)n4C)n2)C1`, the inhibition was 7.75% in experiment [1]; 17.6% in experiment [2]; 18.2% in experiment [3]; -6.88% in [4]; 69.6% in experiment [5]; 73.2% in [6]. Besides, the results for the inhibition in experiment [7] (Hit No), in [8] and in [9] were 19.3%, -5.89% and 8.19%, respectively.

Take `O=C(NNS(=O)(=O)c1ccccc1F)c1cc(F)cc(-c2ccccn2)c1`: the inhibition in experiment [1] was 6.14%; in experiment [2] it was 15.4%; in experiment [3], 3.72%; in experiment [4] it was 11.9%; in experiment [5], 49.9%; in [6], 80.8%. For the same compound, the inhibition in experiment [7] (Hit No) stood at 3.57%; in experiment [8], 0.316%; in experiment [9], 3.34%.

Take `CC(C)(C[C@H]1CN(S(=O)(=O)c2cccc(C(F)(F)F)c2)c2cc(-c3cc(F)cc(OC(F)F)c3)ccc2O1)C(=O)O`: the inhibition was 3.71% in experiment [1]; 22.1% in experiment [2]; 4.92% in experiment [3]; -3.92% in experiment [4]; 72.3% in experiment [5]; 69% in experiment [6]. For the same compound, the inhibition in [7] (Hit Yes) is 101%; in experiment [8] it was -6.65%; in experiment [9] it was 1.55%.

Turning to `O=C(Nc1cccnc1)c1cc(-c2ccnc(F)c2)ccc1OCc1ccccc1`, the inhibition is 2.47% in [1]; 25.3% in [2]; 3.77% in [3]; 4.27% in [4]; 52.5% in experiment [5]; 20.7% in [6]. In addition, the inhibition is 6.84% in experiment [7] (Hit No), -5.94% in experiment [8] and -3.53% in experiment [9].
